Inhibition zone diameter data for eight molecules are collected here from PubChem BioAssay AID434975 (The Scripps Research Institute Molecular Screening Center, 2010).

The structures appear in SMILES notation. The source made the active and inactive calls.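 Rule for the calls: active = inhibition zone diameter above 0 mm; inactive = zone diameter of 0 mm or less.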

This experiment has as its system Candida albicans ATCC 90028, disc diffusion zone, 24 h. Nature of the experiment: antifungal activity against C. albicans – disc diffusion, zone diameter, TPT1 inhibitor project, late-stage follow-up (AID 434975). Particulars: at 10 mM; hits give high values. For orientation: A growth-free zone around the sample is the usual read-out of agar diffusion tests.
Consider `NC(=O)c1cc[n+](CC2=C(C(=O)O)N3C(=O)[C@@H](NC(=O)C(c4ccccc4)S(=O)(=O)O)[C@H]3SC2)cc1` (stereo partly drawn), for which the inhibition zone diameter was 0 mm (inactive). With `O=c1oc2c(O)c(O)cc3c(=O)oc4c(O)c(O)cc1c4c23`, the inhibition zone diameter was 0 mm (inactive). With `Cc1ccc(N2C(=O)NC(=O)/C(=C\c3ccc([N+](=O)[O-])o3)C2=O)cc1`, the inhibition zone diameter was 12.6 mm. To `CC1=C(C#N)C(=O)N(C2CCS(=O)(=O)C2)C(=O)/C1=C\c1ccco1` (stereo not drawn) belongs 0 mm (inactive); to `OC(Cn1cncn1)(Cn1cncn1)c1ccc(F)cc1F`, 38 mm. Regarding `Cc1ccccc1N1C(=O)/C(=C/c2ccco2)C(=O)NC1=S`, the inhibition zone diameter is 0 mm (inactive).

Consider `COc1ccc(OC)c(N2C(=O)/C(=C/c3ccco3)C(=O)NC2=S)c1`, for which the inhibition zone diameter is 0 mm (inactive). To `Cc1cc(C)n(Cc2ccc(C(=O)NN=Cc3ccc(-c4ccc([N+](=O)[O-])cc4)o3)o2)n1` belongs 0 mm (inactive).
